Data from US10933063B2 (priority 2017, dated 2021).
pIC50: −log10 of the molar value.

Target: BTK (Homo sapiens (Human), UniProt Q06187)
Test: biochemical
Description: Btk kinase activity was determined using a homogenous time resolved fluorescence (HTRF) methodology. Measurements were performed in a reaction volume of 15 μL using 384-well assay plates. Kinase enzyme, inhibitor, ATP and 1 μM peptide substrate were incubated in a reaction buffer compose of Hepes50 mM (pH7.0), NaN3 0.02%, BSA 0.01%, Orthocanadate 0.1 mM. […] For each compound, enzyme activity as measured at various concentrations of compound, Negative control reactions were performed in the absence of inhibitor in two replicates and eight no enzyme controls were used to determine baseline fluorescence levels.

BTK, sequence (Q06187 whole entry, looked up, species assumed): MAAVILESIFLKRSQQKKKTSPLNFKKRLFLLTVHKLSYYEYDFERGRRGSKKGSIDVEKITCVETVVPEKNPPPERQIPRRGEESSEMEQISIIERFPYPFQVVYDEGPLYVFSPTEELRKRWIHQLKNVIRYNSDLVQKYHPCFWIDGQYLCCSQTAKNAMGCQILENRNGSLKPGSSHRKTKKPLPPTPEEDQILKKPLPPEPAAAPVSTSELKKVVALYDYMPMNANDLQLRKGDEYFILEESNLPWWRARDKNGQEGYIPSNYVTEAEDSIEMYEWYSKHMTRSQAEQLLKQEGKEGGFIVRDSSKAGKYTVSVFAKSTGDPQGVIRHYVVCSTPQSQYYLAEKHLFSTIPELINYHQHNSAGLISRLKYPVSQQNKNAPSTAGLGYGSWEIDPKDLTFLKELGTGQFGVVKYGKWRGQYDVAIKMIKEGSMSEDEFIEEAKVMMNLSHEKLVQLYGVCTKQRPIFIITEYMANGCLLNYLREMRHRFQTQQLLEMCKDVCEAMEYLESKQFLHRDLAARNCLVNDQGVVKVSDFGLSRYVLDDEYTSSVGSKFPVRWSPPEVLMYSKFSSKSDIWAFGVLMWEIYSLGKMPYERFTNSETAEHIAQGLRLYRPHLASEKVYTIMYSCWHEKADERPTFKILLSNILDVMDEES

Structure (SMILES)	pIC50
CC#CC(=O)N1CC[C@@H](c2nc(-c3ccc(Oc4cccc(OC)c4F)cc3)c3c(C)ncc(C)n23)C1 [Example 75, (R)-1-(3-(1-(4-(2-fluoro-3-methoxyphenoxy)phenyl)-5,8-dimethylimidazo[1,5-a]pyrazin-3-yl)pyrrolidin-1-yl)but-2-yn-1-one]	7.00 to 8.00
COc1cccc(Oc2ccc(-c3nc([C@@H]4CCN(C(=O)/C(C#N)=C/C(C)(C)C)C4)n4ccnc(C)c34)cc2)c1F [Example 88, (R,E)-2-(3-(1-(4-(2-fluoro-3-methoxyphenoxy)phenyl)-8-methylimidazo[1,5-a]pyrazin-3-yl)pyrrolidine-1-carbonyl)-4,4-dimethylpent-2-enenitrile]	7.00 to 8.00
C=CC(=O)N1CCCC[C@H]1c1nc(-c2cccc(OCc3cccc(C(F)(F)F)c3)c2)c2c(C)nccn12 [Example 162, (S)-1-(2-(8-methyl-1-(3-((3-(trifluoromethyl)benzyl)oxy)phenyl)imidazo[1,5-a]pyrazin-3-yl)piperidin-1-yl)prop-2-en-1-one]	5.00 to 6.00
CC#CC(=O)N1CCC[C@@H](c2nc(-c3ccc(Oc4cccc(OC)c4)cc3)c3cnccn23)C1 [Example 52, (R)-1-(3-(1-(4-(3-methoxyphenoxy)phenyl)imidazo[1,5-a]pyrazin-3-yl)piperidin-1-yl)but-2-yn-1-one]	6.00 to 7.00
C=CC(=O)N1CCCC[C@H]1c1nc(-c2ccc(OCc3cccc(F)c3F)cc2)c2c(C)nccn12 [Example 154, (S)-1-(2-(1-(4-((2,3-difluorobenzyl)oxy)phenyl)-8-methylimidazo[1,5-a]pyrazin-3-yl)piperidin-1-yl)prop-2-en-1-one]	7.00 to 8.00
C=CC(=O)N1CCC[C@H]1c1nc(-c2ccc(Oc3cccc(OC)c3F)cc2)c2c(O)nccn12 [Example 36, (S)-1-(2-(1-(4-(2-fluoro-3-methoxyphenoxy)phenyl)-8-hydroxyimidazo[1,5-a]pyrazin-3-yl)pyrrolidin-1-yl)prop-2-en-1-one]	7.00 to 8.00
CC#CC(=O)N1CCCC[C@H]1c1nc(-c2ccc(C(=O)Nc3ccccn3)cc2)c2c(C)nccn12 [Example 171, (S)-4-(3-(1-(but-2-ynoyl)piperidin-2-yl)-8-methylimidazo[1,5-a]pyrazin-1-yl)-N-(pyridin-2-yl)benzamide]	7.00 to 8.00
CC#CC(=O)N1CC[C@@H](c2nc(-c3ccc(C(=O)Nc4ccccn4)cc3)c3cncc(C)n23)C1 [Example 181, (R)-4-(3-(1-(but-2-ynoyl)pyrrolidin-3-yl)-5-methylimidazo[1,5-a]pyrazin-1-yl)-N-(pyridin-2-yl)benzamide]	5.00 to 6.00
CC#CC(=O)N1CCCC[C@H]1c1nc(-c2cccc(OCc3cccc(C(F)(F)F)c3)c2)c2c(C)nccn12 [Example 163, (S)-1-(2-(8-methyl-1-(3-((3-(trifluoromethyl)benzyl)oxy)phenyl)imidazo[1,5-a]pyrazin-3-yl)piperidin-1-yl)but-2-yn-1-one]	5.00 to 6.00
CC#CC(=O)N1CC[C@@H](c2nc(-c3ccc(C(=O)Nc4ccccn4)cc3)c3c(C)ncc(C)n23)C1 [Example 183, (R)-4-(3-(1-(but-2-ynoyl)pyrrolidin-3-yl)-5,8-dimethylimidazo[1,5-a]pyrazin-1-yl)-N-(pyridin-2-yl)benzamide]	6.00 to 7.00
C=CC(=O)N1CCCC[C@H]1c1nc(-c2ccc(Oc3cccc(OC)c3F)cc2)c2c(C)ncc(C)n12 [Example 80, (S)-1-(2-(1-(4-(2-fluoro-3-methoxyphenoxy)phenyl)-5,8-dimethylimidazo[1,5-a]pyrazin-3-yl)piperidin-1-yl)prop-2-en-1-one]	7.00 to 8.00
COc1cccc(Oc2ccc(-c3nc([C@@H]4CCCN(C(=O)/C(C#N)=C/C(C)(C)C)C4)n4ccncc34)cc2)c1F [Example 2, (R,E)-2-(3-(1-(4-(2-Fluoro-3-methoxyphenoxy)phenyl)imidazo[1,5-a]pyrazin-3-yl)piperidine-1-carbonyl)-4,4-dimethylpent-2-enenitrile]	7.00 to 8.00
C=CC(=O)N1CCCC[C@H]1c1nc(-c2ccc(Oc3cccc(OC)c3F)cc2)c2c(C(=O)OC)nccn12 [Example 66, methyl (S)-3-(1-acryloylpiperidin-2-yl)-1-(4-(2-fluoro-3-methoxyphenoxy)phenyl)imidazo[1,5-a]pyrazine-8-carboxylate]	5.00 to 6.00
CC#CC(=O)N1CCC[C@@H](c2nc(-c3ccc(Oc4cccc(OC)c4F)cc3)c3cncc(C)n23)C1 [Example 71, (R)-1-(3-(1-(4-(2-fluoro-3-methoxyphenoxy)phenyl)-5-methylimidazo[1,5-a]pyrazin-3-yl)piperidin-1-yl)but-2-yn-1-one]	6.00 to 7.00
CC#CC(=O)N1CCC[C@H]1c1nc(-c2ccc(COc3ccccc3F)cc2)c2cnccn12 [Example 146, (S)-1-(2-(1-(4-((2-fluorophenoxy)methyl)phenyl)imidazo[1,5-a]pyrazin-3-yl)pyrrolidin-1-yl)but-2-yn-1-one]	5.00 to 6.00
CC#CC(=O)N1CC[C@@H](c2nc(-c3ccc(Oc4cccc(OC)c4F)cc3)c3c(COC(C)=O)nccn23)C1 [Example 118, (R)-(3-(1-(but-2-ynoyl)pyrrolidin-3-yl)-1-(4-(2-fluoro-3-methoxyphenoxy)phenyl)imidazo[1,5-a]pyrazin-8-yl)methyl acetate]	6.00 to 7.00

Structure (SMILES)	pIC50
CC#CC(=O)N1CCCC[C@H]1c1nc(-c2ccc(C(=O)Nc3ccccn3)cc2)c2c(C)ncc(C)n12 [Example 189, (S)-4-(3-(1-(but-2-ynoyl)piperidin-2-yl)-5,8-dimethylimidazo[1,5-a]pyrazin-1-yl)-N-(pyridin-2-yl)benzamide]	6.00 to 7.00
CC#CC(=O)N1CCC[C@H]1c1nc(-c2ccc(C(=O)Nc3ccccn3)cc2)c2cncc(C)n12 [Example 173, (S)-4-(3-(1-(but-2-ynoyl)pyrrolidin-2-yl)-5-methylimidazo[1,5-a]pyrazin-1-yl)-N-(pyridin-2-yl)benzamide]	5.00 to 6.00
C=CC(=O)N1CCC[C@@H](c2nc(-c3ccc(C(=O)Nc4ccccn4)cc3)c3cncc(C)n23)C1 [Example 178, (R)-4-(3-(1-acryloylpiperidin-3-yl)-5-methylimidazo [1,5-a]pyrazin-1-yl)-N-(pyridin-2-yl)benzamide]	6.00 to 7.00
C=CC(=O)N1CCC[C@H]1c1nc(-c2ccc(Oc3cccc(OC)c3F)cc2)c2cnc(C)cn12 [Example 83, (S)-1-(2-(1-(4-(2-fluoro-3-methoxyphenoxy)phenyl)-6-methylimidazo[1,5-a]pyrazin-3-yl)pyrrolidin-1-yl)prop-2-en-1-one]	7.00 to 8.00
C=CC(=O)N1CCCC[C@H]1c1nc(-c2ccc(C(=O)Nc3ccccn3)cc2)c2cncc(C)n12 [Example 186, (S)-4-(3-(1-acryloylpiperidin-2-yl)-5-methylimidazo [1,5-a]pyrazin-1-yl)-N-(pyridin-2-yl)benzamide]	6.00 to 7.00
COc1cccc(Oc2ccc(-c3nc([C@@H]4CCCN4C(=O)/C(C#N)=C/C(C)(C)C)n4ccncc34)cc2)c1F [Example 31, (S,E)-2-(2-(1-(4-(2-fluoro-3-methoxyphenoxy)phenyl)imidazo[1,5-a]pyrazin-3-yl)pyrrolidine-1-carbonyl)-4,4-dimethylpent-2-enenitrile]	6.00 to 7.00
C=CC(=O)N1CC[C@@H](c2nc(-c3ccc(Oc4cccc(OC)c4F)cc3)c3c(CCC)nccn23)C1 [Example 109, (R)-1-(3-(1-(4-(2-fluoro-3-methoxyphenoxy)phenyl)-8-propylimidazo[1,5-a]pyrazin-3-yl)pyrrolidin-1-yl)prop-2-en-1-one]	6.00 to 7.00
CC#CC(=O)N1CCCC[C@H]1c1nc(-c2ccc(Oc3cccc(C)c3)cc2)c2c(C)nccn12 [Example 41, (S)-1-(2-(8-methyl-1-(4-(m-tolyloxy)phenyl)imidazo[1,5-a]pyrazin-3-yl)piperidin-1-yl)but-2-yn-1-one]	7.00 to 8.00
C=CC(=O)N1CCC[C@H]1c1nc(-c2ccc(Oc3ccccc3)c(Cl)c2)c2cnccn12 [Example 26, (S)-1-(2-(1-(3-chloro-4-phenoxyphenyl)imidazo[1,5-a]pyrazin-3-yl)pyrrolidin-1-yl)prop-2-en-1-one]	7.00 to 8.00
CC#CC(=O)N1CCC[C@@H](c2nc(-c3ccc(Oc4cccc(OC)c4F)cc3)c3c(C)ncc(C)n23)C1 [Example 77, (R)-1-(3-(1-(4-(2-fluoro-3-methoxyphenoxy)phenyl)-5,8-dimethylimidazo[1,5-a]pyrazin-3-yl)piperidin-1-yl)but-2-yn-1-one]	6.00 to 7.00
C=CC(=O)N1CCCC[C@H]1c1nc(-c2ccc(C(=O)Nc3ccccn3)cc2)c2cnccn12 [Example 168, (S)-4-(3-(1-acryloylpiperidin-2-yl)imidazo[1,5-a]pyrazin-1-yl)-N-(pyridin-2-yl) benzamide]	7.00 to 8.00
CC#CC(=O)N1CCC[C@H]1c1nc(-c2ccc(COc3cccc(OC)c3F)cc2)c2cnccn12 [Example 160, (S)-1-(2-(1-(4-((2-fluoro-3-methoxyphenoxy)methyl)phenyl)imidazo[1,5-a]pyrazin-3-yl)pyrrolidin-1-yl)but-2-yn-1-one]	5.00 to 6.00
CC#CN1CCC[C@H]1c1nc(-c2ccc(C(=O)Nc3cc(C(F)(F)F)ccn3)cc2)c2c(CF)nccn12 [Example 209, (S)-4-(8-(fluoromethyl)-3-(1-(prop-1-yn-1-yl)pyrrolidin-2-yl)imidazo [1,5-a]pyrazin-1-yl)-N-(4-(trifluoromethyl)pyridin-2-yl)benzamide]	6.00 to 7.00
CC#CC(=O)N1CCC[C@@H](c2nc(-c3ccc(C(=O)Nc4ccccn4)cc3)c3c(C)ncc(C)n23)C1 [Example 185, (R)-4-(3-(1-(but-2-ynoyl)piperidin-3-yl)-5,8-dimethylimidazo[1,5-a]pyrazin-1-yl)-N-(pyridin-2-yl)benzamide]	6.00 to 7.00
CC#CC(=O)N1CCC[C@H]1c1nc(-c2ccc(Oc3cccc(OC)c3F)cc2)c2c(O)nccn12 [Example 35, (S)-1-(2-(1-(4-(2-fluoro-3-methoxyphenoxy)phenyl)-8-hydroxyimidazo[1,5-a]pyrazin-3-yl)pyrrolidin-1-yl)but-2-yn-1-one]	5.00 to 6.00
C=CC(=O)N1CCCC[C@H]1c1nc(-c2ccc(COc3ccc(F)c(F)c3)cc2)c2c(C)nccn12 [Example 150, (S)-1-(2-(1-(4-((3,4-difluorophenoxy)methyl)phenyl)-8-methylimidazo[1,5-a]pyrazin-3-yl)piperidin-1-yl)prop-2-en-1-one]	7.00 to 8.00
